# Data reported in ChEMBL document CHEMBL1201862, “PubChem BioAssay data set” (2004).
# Active and inactive are the calls of the source.
# Assays:
# [1] = microbe, parasite or virus in culture; format: functional; details: Mycobacterium tuberculosis
# [2] = cells; format: functional
# [3] = Vero E6 cell cytotoxicity, dose response, cytotoxicity control for non-replicating M. tuberculosis project, secondary assay (AID 492998); format: functional, VeroE6; details: Vero C1008
# [4] = THP-1 cell cytotoxicity, dose response, cytotoxicity control for non-replicating M. tuberculosis project (AID 489025); format: functional
# [5] = luciferase reporter signal suppression in cells – H4 neuroglioma cells, luminescence, dose response (AID 1990); format: functional, cell-based
# [6] = DRD fibroblast viability loss – cell-based, non-viral oncogenic, luminescence, dose response (AID 1934); format: functional; details: Homo sapiens
# [7] = molecular target: Luciferin 4-monooxygenase (Photinus pyralis, UniProt P08659); test: Counter Screen for Luciferase-based Assay Positives. [Related pubchem assays: 620, 618, 411 ]
# [8] = Luminescence Cell-Based Dose Response HTS to Identify Inhibitors of 5'UTR Stem-Loop Driven Prion Protein mRNA Translation in H4 Neuroglioblastoma Cells. [Related pubchem assays: 1827 (Project Summary), 1813 (Primary HTS)]; format: functional
# [9] = system: BJ; test: BJ-TERT fibroblast viability loss – cell-based, RAS-independent, luminescence, dose response (AID 1933); format: functional; details: Homo sapiens
# [10] = system: BJ; test: cells; format: functional, cell-based; details: Homo sapiens
# [11] = system: BJ; test: BJ-TERT-LT-ST fibroblast viability loss – cell-based, RAS-independent, luminescence, dose response (AID 1935); format: functional; details: Homo sapiens;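 also: BJ fibroblasts immortalized with TERT plus LT and ST oncogenes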
# [12] = system: HT-1080; test: HT1080 cell viability loss – fluorescence readout (AID 620); format: functional, cell-based; details: Homo sapiens
# [13] = molecular target: Glyceraldehyde-3-phosphate dehydrogenase (Homo sapiens, UniProt P04406)
# [14] = alpha-synuclein stem-loop luciferase translation blockers – H4 neuroglioma cells, luminescence, confirmation (AID 1988); format: functional, cell-based
# [15] = molecular target: T1, Trace amine-associated receptor 1 (Homo sapiens, UniProt Q96RJ0); test: Counterscreen for agonists of the human trace amine associated receptor 1 (hTAAR1): Fluorescence-based cell-based high throughput dose response assay to identify hTAAR1 agonist that also desensitize TAAR1 receptor response.; format: functional
# T1 sequence (Q96RJ0 whole entry): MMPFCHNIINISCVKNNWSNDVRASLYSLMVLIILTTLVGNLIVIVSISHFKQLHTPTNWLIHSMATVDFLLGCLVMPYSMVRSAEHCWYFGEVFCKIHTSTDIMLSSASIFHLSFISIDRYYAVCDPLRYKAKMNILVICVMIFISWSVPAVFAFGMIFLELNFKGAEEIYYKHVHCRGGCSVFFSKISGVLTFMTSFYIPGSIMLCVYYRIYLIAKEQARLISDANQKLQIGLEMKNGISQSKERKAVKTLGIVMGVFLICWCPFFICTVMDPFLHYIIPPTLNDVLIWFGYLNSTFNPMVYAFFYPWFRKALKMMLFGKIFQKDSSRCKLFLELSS
# [16] = cells; format: functional, cell-based
# [17] = molecular target: T1, Trace amine-associated receptor 1; test: Fluorescence-based cell-based high throughput dose response assay to identify agonists of the human trace amine associated receptor 1 (TAAR1).; format: functional
# [18] = cells; format: functional, cell-based; remark: listed apart in the source
# [19] = molecular target: T2, Aspartyl aminopeptidase (Plasmodium falciparum 3D7, UniProt Q8I2J3); test: Counterscreen for inhibitors of M1 and M17 aminopeptidases: QFRET-based biochemical high throughput dose response assay for inhibitors of the Plasmodium falciparum M18 Aspartyl Aminopeptidase (PFM18AAP). [Related PubChem assays: 1619 (Screening assay (M17LAP inhibitors).), 1445 (Screening assay (M1AAP inhibitors).)]
# T2 sequence (Q8I2J3 whole entry): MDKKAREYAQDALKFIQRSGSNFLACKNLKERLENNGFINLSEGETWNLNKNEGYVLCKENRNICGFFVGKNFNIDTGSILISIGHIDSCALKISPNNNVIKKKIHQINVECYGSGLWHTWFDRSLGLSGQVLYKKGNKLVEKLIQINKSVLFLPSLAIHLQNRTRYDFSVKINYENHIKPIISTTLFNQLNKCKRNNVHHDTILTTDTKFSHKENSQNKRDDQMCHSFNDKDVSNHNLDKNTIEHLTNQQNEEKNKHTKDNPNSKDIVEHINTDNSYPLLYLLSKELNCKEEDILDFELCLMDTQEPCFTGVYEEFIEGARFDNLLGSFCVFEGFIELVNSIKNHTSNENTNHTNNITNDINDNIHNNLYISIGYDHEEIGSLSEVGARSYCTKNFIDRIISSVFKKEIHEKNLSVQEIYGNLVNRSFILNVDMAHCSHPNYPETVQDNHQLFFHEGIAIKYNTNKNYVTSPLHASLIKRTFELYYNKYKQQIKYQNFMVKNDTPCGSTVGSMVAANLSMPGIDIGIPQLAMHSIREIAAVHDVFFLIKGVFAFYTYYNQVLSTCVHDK
# [20] = molecular target: T3, Leucine aminopeptidase (Plasmodium falciparum 3D7, UniProt Q8IL11); test: P. falciparum M17LAP inhibitors, primary screen, biochemical, fluorogenic H-Leu-NHMec substrate, 1536-well (AID 1619); format: functional
# T3 sequence (Q8IL11 whole entry): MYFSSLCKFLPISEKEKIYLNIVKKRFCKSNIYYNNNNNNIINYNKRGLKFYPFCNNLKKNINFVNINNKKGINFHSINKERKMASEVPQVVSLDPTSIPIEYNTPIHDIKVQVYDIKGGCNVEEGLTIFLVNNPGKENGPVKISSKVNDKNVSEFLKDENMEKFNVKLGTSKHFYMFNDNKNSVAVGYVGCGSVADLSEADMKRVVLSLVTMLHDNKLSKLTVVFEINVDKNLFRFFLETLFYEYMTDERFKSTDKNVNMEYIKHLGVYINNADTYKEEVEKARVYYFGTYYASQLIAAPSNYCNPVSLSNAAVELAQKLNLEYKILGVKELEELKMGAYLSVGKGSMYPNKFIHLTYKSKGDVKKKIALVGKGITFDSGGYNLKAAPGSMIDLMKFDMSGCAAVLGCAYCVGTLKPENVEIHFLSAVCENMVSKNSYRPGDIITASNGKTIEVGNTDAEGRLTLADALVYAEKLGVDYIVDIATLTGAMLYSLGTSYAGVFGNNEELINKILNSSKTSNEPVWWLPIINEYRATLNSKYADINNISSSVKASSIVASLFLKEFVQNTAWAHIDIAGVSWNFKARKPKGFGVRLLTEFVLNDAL
# [21] = molecular target: Procathepsin L (Homo sapiens, UniProt P07711); test: CTSL1 protease inhibition – biochemical, QFRET, 1536-well, counter-screen for M1/M17 aminopeptidase inhibitor project, dose response (AID 2214)
# [22] = HPDE-C7 pancreatic duct cell viability loss – fluorescence, HTS (AID 430); format: functional, cell-based; details: Homo sapiens
# [23] = viability loss of HPDE-C7K cells – cell-based, fluorescence, HTS, primary screen (AID 431); format: functional; details: Homo sapiens
# [24] = molecular target: T4, Aminopeptidase N (Plasmodium falciparum FcB1/Columbia, UniProt O96935); test: malaria alanyl aminopeptidase activity blockers – biochemical, fluorogenic H-Leu-NHMec substrate, 1536-well (AID 1445); parameters: species or system Plasmodium falciparum 3D7, 3D7
# T4 sequence (O96935 whole entry): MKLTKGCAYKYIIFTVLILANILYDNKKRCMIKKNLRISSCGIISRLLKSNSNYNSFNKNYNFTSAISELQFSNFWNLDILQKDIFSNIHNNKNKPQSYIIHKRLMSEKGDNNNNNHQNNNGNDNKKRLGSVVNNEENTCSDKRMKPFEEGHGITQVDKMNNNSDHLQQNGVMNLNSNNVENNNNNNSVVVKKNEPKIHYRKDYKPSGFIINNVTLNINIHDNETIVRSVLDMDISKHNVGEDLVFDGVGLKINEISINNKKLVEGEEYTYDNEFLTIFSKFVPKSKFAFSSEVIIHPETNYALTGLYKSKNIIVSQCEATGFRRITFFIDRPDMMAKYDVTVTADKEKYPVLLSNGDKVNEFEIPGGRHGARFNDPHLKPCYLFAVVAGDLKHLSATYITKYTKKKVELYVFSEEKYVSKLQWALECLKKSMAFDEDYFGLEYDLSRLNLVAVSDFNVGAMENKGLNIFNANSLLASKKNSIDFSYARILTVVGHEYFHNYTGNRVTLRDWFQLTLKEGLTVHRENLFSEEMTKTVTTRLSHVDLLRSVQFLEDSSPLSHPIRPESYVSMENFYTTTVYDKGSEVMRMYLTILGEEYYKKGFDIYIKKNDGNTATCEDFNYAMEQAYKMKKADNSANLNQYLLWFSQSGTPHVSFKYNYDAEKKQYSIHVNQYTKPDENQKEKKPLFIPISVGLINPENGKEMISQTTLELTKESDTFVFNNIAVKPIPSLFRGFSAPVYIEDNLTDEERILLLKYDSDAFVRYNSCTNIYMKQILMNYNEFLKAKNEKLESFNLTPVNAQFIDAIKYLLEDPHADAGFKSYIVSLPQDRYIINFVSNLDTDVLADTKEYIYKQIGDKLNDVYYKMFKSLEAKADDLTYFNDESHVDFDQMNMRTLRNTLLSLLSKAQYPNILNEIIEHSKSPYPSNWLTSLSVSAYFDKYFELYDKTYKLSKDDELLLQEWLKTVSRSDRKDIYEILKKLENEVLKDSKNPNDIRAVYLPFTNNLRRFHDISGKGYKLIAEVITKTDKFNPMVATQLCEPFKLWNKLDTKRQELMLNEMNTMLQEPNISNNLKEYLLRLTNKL
# [25] = molecular target: Genome polyprotein (dengue virus type 2, UniProt P29990); test: flavivirus cap methylation enzyme inhibition – biochemical, confirmation dose response, primary screen (AID 588689); format: functional
# [26] = molecular target: Peroxisome proliferator-activated receptor gamma/Nuclear receptor coactivator 3 (Homo sapiens, UniProt P37231); format: functional;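 also: agonist potency for raising coactivator recruitment to the receptor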
# [27] = molecular target: Peroxisome proliferator-activated receptor gamma/Nuclear receptor coactivator 2 (Homo sapiens, UniProt P37231); format: functional;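 also: agonist potency for raising coactivator recruitment to the receptor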
# [28] = molecular target: Peroxisome proliferator-activated receptor gamma/Nuclear receptor coactivator 1 (Homo sapiens, UniProt P37231); format: functional;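 also: agonist potency as compounds enhance coactivator SRC-1 recruitment to PPARgamma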
# [29] = molecular target: T5, Microphthalmia-associated transcription factor (Homo sapiens, UniProt O75030); test: reducers of TRPM1 reporter luminescence, concentration series – cell-based, SK-MEL-5, cherry-picked, set 3, MITF inhibitor project, dose response (AID 493073); format: functional;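 also: SK-MEL-5 melanoma cells with luciferase driven by the MITF target TRPM1 promoter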
# T5 sequence (O75030 whole entry): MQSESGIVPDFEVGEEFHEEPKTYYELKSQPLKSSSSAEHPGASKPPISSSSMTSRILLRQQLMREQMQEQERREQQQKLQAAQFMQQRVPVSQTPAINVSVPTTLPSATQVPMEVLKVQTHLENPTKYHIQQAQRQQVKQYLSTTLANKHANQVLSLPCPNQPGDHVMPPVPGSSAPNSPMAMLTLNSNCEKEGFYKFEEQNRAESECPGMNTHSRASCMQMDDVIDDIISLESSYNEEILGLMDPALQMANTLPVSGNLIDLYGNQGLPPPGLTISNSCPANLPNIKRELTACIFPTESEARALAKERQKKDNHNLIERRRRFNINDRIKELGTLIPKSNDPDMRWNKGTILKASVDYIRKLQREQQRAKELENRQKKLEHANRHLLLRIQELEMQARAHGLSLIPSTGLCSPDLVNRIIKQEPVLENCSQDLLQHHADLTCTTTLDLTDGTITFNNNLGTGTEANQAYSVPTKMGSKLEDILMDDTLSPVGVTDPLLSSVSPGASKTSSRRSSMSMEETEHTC
# [30] = molecular target: Neurotensin receptor type 1 (Homo sapiens, UniProt P30989); format: functional;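 also: Image-based confirmatory dose-response assay measuring agonist activity at NTR1; NTR1-expressing U2OS osteosarcoma cells imaged for beta-arrestin GFP spot formation; agonist potency where compounds increase beta-arrestin recruitment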
# Luciferin 4-monooxygenase, sequence (P08659 whole entry): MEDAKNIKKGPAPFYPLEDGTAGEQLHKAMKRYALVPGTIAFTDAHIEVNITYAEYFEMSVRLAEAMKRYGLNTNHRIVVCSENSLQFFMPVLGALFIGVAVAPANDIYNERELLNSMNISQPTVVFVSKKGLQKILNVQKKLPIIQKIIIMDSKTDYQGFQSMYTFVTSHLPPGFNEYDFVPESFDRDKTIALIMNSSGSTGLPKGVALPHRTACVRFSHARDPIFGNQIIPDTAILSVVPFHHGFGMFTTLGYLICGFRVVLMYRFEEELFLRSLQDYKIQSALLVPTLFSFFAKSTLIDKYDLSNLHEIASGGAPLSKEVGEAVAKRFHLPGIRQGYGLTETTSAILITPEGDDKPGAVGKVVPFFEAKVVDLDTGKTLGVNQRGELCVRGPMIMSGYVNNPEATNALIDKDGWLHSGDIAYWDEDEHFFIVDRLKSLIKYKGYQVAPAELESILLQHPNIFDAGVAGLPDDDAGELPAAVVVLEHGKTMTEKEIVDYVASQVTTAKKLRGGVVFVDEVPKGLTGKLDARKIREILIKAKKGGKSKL
# Peroxisome proliferator-activated receptor gamma/Nuclear receptor coactivator 2, sequence (P37231 whole entry): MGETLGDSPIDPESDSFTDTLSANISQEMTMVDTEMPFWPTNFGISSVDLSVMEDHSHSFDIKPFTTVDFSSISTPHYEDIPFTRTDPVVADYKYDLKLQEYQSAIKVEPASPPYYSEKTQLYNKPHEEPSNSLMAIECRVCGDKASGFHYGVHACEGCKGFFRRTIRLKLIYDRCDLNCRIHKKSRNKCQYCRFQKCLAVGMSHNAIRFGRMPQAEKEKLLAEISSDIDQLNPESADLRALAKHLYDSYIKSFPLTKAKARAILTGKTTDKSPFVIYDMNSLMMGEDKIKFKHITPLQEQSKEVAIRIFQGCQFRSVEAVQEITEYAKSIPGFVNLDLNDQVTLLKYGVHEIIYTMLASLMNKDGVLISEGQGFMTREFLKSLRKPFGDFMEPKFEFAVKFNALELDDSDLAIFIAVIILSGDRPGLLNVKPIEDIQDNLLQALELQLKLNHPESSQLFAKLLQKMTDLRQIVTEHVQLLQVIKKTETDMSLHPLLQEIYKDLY
# Peroxisome proliferator-activated receptor gamma/Nuclear receptor coactivator 2, sequence (Q15596 whole entry, further chain): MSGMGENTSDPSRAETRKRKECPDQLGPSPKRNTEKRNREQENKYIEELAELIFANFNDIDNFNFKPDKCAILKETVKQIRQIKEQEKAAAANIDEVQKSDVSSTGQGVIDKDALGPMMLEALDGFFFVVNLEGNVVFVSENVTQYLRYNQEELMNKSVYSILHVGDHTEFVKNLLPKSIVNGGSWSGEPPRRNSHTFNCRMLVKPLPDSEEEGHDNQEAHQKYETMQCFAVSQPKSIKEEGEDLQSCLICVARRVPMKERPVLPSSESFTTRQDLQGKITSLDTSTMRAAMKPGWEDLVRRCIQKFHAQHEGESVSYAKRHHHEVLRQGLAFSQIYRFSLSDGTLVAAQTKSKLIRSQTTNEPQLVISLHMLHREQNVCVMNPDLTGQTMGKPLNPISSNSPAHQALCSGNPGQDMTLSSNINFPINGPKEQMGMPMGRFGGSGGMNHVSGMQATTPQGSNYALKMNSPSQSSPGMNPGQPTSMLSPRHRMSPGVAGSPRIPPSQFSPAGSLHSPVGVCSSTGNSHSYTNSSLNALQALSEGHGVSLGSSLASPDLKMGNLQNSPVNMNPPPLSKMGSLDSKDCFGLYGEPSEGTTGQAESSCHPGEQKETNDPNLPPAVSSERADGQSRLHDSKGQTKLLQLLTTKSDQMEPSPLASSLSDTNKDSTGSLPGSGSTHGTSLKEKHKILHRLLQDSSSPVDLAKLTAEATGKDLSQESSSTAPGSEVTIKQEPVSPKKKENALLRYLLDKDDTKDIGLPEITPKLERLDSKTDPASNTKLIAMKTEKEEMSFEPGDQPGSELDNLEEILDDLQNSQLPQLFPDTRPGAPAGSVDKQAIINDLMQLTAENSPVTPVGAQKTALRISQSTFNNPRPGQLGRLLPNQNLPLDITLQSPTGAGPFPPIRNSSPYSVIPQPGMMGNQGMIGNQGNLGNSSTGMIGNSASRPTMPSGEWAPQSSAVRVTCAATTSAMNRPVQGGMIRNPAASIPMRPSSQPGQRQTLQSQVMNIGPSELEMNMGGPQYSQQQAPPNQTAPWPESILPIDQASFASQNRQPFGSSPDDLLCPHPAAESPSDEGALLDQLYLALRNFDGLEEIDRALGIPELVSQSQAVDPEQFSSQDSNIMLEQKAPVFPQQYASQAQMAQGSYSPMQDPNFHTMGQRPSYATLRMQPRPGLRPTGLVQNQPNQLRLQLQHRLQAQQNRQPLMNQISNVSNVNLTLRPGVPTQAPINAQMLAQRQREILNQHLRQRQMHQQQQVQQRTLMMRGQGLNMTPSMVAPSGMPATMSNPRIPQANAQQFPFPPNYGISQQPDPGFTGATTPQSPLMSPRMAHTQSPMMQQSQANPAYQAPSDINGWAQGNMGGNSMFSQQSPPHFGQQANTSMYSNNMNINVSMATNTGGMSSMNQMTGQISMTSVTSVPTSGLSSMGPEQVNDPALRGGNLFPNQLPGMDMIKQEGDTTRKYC
# Peroxisome proliferator-activated receptor gamma/Nuclear receptor coactivator 1, sequence (P37231 whole entry): as the sequence (P37231 whole entry) above
# Peroxisome proliferator-activated receptor gamma/Nuclear receptor coactivator 1, sequence (Q15788 whole entry, further chain): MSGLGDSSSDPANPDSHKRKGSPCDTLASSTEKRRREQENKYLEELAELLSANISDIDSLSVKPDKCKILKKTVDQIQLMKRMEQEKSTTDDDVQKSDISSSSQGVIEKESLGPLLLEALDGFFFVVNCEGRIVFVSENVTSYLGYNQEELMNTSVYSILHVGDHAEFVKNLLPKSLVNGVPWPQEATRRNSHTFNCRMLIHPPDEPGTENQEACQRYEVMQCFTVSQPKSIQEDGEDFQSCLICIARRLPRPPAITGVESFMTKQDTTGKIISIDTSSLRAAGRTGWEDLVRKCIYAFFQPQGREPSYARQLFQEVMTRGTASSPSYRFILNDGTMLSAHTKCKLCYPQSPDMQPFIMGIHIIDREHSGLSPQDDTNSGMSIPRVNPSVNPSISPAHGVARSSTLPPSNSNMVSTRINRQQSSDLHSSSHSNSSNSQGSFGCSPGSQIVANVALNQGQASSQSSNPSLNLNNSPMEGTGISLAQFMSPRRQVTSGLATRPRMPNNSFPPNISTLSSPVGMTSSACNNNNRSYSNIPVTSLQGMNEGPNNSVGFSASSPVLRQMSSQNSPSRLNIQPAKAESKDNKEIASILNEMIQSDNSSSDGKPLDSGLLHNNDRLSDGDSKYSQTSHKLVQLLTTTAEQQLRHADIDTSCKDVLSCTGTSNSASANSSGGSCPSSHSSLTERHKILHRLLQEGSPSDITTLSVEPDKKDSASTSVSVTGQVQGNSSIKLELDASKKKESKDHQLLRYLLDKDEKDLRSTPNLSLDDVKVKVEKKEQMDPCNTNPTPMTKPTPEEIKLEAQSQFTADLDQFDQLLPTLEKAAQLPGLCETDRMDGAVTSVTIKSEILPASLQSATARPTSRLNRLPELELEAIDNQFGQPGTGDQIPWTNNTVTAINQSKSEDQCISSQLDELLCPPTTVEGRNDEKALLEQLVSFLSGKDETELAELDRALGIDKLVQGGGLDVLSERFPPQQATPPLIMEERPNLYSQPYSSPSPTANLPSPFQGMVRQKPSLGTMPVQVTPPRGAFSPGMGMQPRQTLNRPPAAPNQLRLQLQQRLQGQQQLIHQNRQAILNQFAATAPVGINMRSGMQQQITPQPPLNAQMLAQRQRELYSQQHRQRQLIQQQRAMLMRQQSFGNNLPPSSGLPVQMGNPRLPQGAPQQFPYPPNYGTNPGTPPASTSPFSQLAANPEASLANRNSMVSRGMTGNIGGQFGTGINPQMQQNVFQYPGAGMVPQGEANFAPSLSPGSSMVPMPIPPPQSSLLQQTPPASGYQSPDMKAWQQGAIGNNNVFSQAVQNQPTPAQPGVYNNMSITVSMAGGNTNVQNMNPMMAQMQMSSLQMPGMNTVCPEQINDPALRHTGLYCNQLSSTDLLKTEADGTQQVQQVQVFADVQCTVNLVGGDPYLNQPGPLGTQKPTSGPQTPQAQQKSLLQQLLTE
# Procathepsin L, sequence (P07711 whole entry): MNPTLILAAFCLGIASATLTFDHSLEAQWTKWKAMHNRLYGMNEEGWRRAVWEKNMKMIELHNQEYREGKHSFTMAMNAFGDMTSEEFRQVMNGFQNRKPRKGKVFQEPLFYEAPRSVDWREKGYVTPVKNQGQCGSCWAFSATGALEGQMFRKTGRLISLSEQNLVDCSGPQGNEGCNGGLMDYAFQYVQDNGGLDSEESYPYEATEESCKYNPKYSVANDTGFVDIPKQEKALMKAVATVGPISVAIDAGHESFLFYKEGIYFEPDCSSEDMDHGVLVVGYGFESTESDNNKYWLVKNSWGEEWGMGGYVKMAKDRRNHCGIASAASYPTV
structure (smiles),measurement,setting,value
O=C(Nc1ncc(Cc2ccccc2Cl)s1)C1=NCCN1,CC50,[1],> 40 µM (active)
same,IC50,[2],4.03 µM (active)
same,CC50,[3],> 20 µM (active)
same,CC50,[4],> 40 µM (active)
O=C(CSc1nnc(-c2ccccc2)o1)Nc1ccccc1F,EC50,[5],4.09 µM (inconclusive)
same,EC50,[6],8.39 µM (active)
same,EC50,[7],2.93 µM (active)
same,EC50,[8],1.07 µM (active)
same,EC50,[9],11.5 µM (active)
same,EC50,[10],7.86 µM (active)
same,EC50,[11],> 150 µM (inconclusive)
same,EC50,[12],> 50 µM (not active)
same,IC50,[13],> 100 µM (not active)
same,EC50,[14],1.21 µM (active)
Cc1cc(-c2csc(N)n2)c(C)n1CCc1ccccc1,IC50,[15],3.8 µM (active)
same,EC50,[7],0.38 µM (active)
same,EC50,[16],> 29.9 µM (inactive)
same,EC50,[17],0.449 µM (active)
same,EC50,[12],> 50 µM (not active)
same,IC50,[18],> 29.9 µM (inactive)
Cc1ccc(Nc2nnc(SC(C)C(=O)Nc3c(C)n(C)n(-c4ccccc4)c3=O)s2)cc1 (stereo unspecified),IC50,[19],> 73.5 µM (not active)
same,IC50,[20],3.86 µM (active)
same,IC50,[21],> 59.6 µM (not active)
O=C(O)CCSc1nc2cc(Br)ccc2[nH]1,EC50,[22],> 20 µM (not active)
same,EC50,[23],> 20 µM (not active)
O=C1/C(=C/c2cccs2)SC(=S)N1NS(=O)(=O)c1ccccc1,IC50,[19],> 73.5 µM (not active)
same,IC50,[24],16.6 µM (active)
same,IC50,[25],57.4 µM (active)
same,IC50,[21],> 59.6 µM (not active)
Cn1cnnc1SCc1ccc(C(=O)N=Nc2c(O)n(C)c3ccccc23)cc1,EC50,[26],> 79.4 µM (not active)
same,EC50,[27],> 79.4 µM (not active)
same,EC50,[28],> 79.4 µM (not active)
CCSC1=C(C#N)C(=O)n2c1cc1c2CCCC1,EC50,[22],13.6 µM (active)
same,EC50,[23],15.4 µM (active)
Cc1[nH]c2ccccc2c1C(=O)C(=O)NCCOc1ccccc1,EC50,[26],> 79.4 µM (not active)
same,EC50,[27],> 79.4 µM (not active)
same,EC50,[28],> 79.4 µM (not active)
Cc1ccccc1C(=O)N/N=C/c1ccc([N+](=O)[O-])s1,EC50,[7],11 µM (active)
same,AC50,[29],1.88 µM (active)
same,EC50,[12],> 50 µM (not active)
C=CCn1/c(=N/C(=O)c2cccc(N3C(=O)CCC3=O)c2)sc2cccc(OC)c21,EC50,[30],> 40 µM (inactive)
